The values that follow come from patent US12569503B2, “Methods and compositions for substituted axially-chiral cannabinol analogs” (University of Florida Research Foundation, Inc., priority 2019, dated 2026).

For orientation: ED50 means the dose at which the effect has come halfway, by size or by number of responders.

For one data set, the system named is C57bl/6j mice. Put plainly: Reduction of body temperature (hypothermia). The following applies: for Effect on body temperature (in words): mice, THC 10-56 mg/kg, ax-CBN 56-320 mg/kg.
The test system of data set [1] is mice. Put plainly: Locomotion measured as ambulatory time (modified tetrad assay). Type of data set: in vivo. The conditions noted are these: for Locomotion (in words): modified tetrad assay, THC 10-56 mg/kg, ax-CBN 56-320 mg/kg.
For data set [2], the system named is mice. Put plainly: Acute thermal antinociception (tail-flick, modified tetrad assay). Type of data set: in vivo. The conditions noted are these: THC 10-56 mg/kg, ax-CBN 56-320 mg/kg.
The target of a further data set is cannabinoid receptors. The conditions noted are these: in a variety of studies, cited from earlier work.
Data set [3] can be described thus: Reduction of body temperature (hypothermia). The conditions noted are these: C57bl/6j, mouse, in vivo, Body Temp. ED50 ((95% CL) mg/kg), Table 4; hypothermia.
Data set [4] can be described thus: Locomotion measured as ambulatory time (modified tetrad assay). It counts as in vivo, mice. The conditions noted are these: C57bl/6j, mouse, in vivo; Table 4; read-out: Hypolocomotion ED50 ((95% CL).
Data set [5] has as its system mice trained to discriminate 10 mg/kg THC. The following applies: rimonabant 0.32 and 1 mg/kg versus vehicle; cited from earlier work.

Entries after “also recorded” stand apart in the source; their conditions may differ.

Regarding 10-methyl-CBN [ax-CBN], the “Body Temp. ED50 ((95% CL)” value with C57bl/6j mice (Table 4, hypothermia) worked out at 308.98 mg/kg. The “Effect on body temperature (in words)” value in the data set on C57bl/6j mice was “hypothermia”. Also, the “Hypolocomotion ED50 ((95% CL)” value in the data set on mice [1] (Table 4) turned out to be 290.20 mg/kg. In the data set with mice [1], the “Locomotion (in words)” value is recorded as “decreased locomotion”. Also, the “Acute thermal antinociception (in words)” value in the data set with mice [2] is listed as “dose-relatedly produced thermal antinociception”.
Consider `CCCCCc1cc(O)c2c(c1)OC(C)(C)c1ccc(C)cc1-2` [CBN, cannabinol], for which the “Binding affinity for cannabinoid receptors” value on cannabinoid receptors is on record as “significantly higher”.
For `CCCCCc1cc(O)c2c(c1)OC(C)(C)[C@@H]1CCC(C)=C[C@@H]21` [THC, (−)-trans-Δ^9-tetrahydrocannabinol], the “Effect on body temperature (in words)” value in the data set with C57bl/6j mice is “robust depression of body temperature; also recorded: hypothermia”. In addition, the results for the ED50 in data set [3] and in data set [4] were 17.5 mg/kg and 25.5 mg/kg, respectively. In the data set with mice [1], the “Locomotion (in words)” value is recorded as “decreased locomotion”. The Ki at cannabinoid receptors (read-out: Binding affinity for cannabinoid receptors) is 20 to 40 nM. Further, in the data set with mice [2], the “Acute thermal antinociception (in words)” value is given as “dose-relatedly produced thermal antinociception”.
Regarding `Cc1c(C(=O)NN2CCCCC2)nn(-c2ccc(Cl)cc2Cl)c1-c1ccc(Cl)cc1` [rimonabant], the “Effect on THC dose effect in drug discrimination (in words)” value in data set [5] is “antagonizes the dose effect of THC”.
